Test results reported in patent US9511058B2, “Methods for using carboxamide, sulfonamide and amine compounds” (Rigel Pharmaceuticals, Inc., priority 2010, dated 2016).

molecular target: AMPK; assay: AMPK activation, enzyme-linked immunosorbent assay; format: biochemical; settings: compounds of Table 1 (Table 6)

| Compound | EC50 |
| --- | --- |
| NC(=O)c1ccc(CN2CCC(Oc3ccc4oc(C(=O)NC5CCN(Cc6ccncc6)CC5)cc4c3)CC2)cc1 [1-131, 5-(1-(4-carbamoylbenzyl)piperidin-4-yloxy)-N-(1-(pyridin-4-ylmethyl)piperidin-4-yl)benzofuran-2-carboxamide] | 1 to 5 µM |
| O=C(NC1CCN(Cc2ccc(F)cc2)CC1)c1cc(OC2CCN(c3ccc(C(F)(F)F)cc3)CC2)ccn1 [1-29, N-(1-(4-fluorobenzyl)piperidin-4-yl)-4-(1-(4-(trifluoromethyl)phenyl)piperidin-4-yloxy)picolinamide] | 0.1 to 0.5 µM |
| CN(C(=O)c1cc2cc(OC3CCN(c4ccc(C(F)(F)F)cc4)CC3)ccc2o1)C1CCN(Cc2ccc(C(F)(F)F)cc2)CC1 [1-119, N-methyl-N-(1-(4-(trifluoromethyl)benzyl)piperidin-4-yl)-5-(1-(4-(trifluoromethyl)phenyl)piperidin-4-yloxy)benzofuran-2-carboxamide] | < 0.1 µM |
| O=C(NC1CCN(Cc2ccccc2)CC1)c1cc2cc(OC3CCN(Cc4cccc(C(F)(F)F)c4)CC3)ccc2o1 [1-73, N-(1-benzylpiperidin-4-yl)-5-(1-(3-(trifluoromethyl)benzyl)piperidin-4-yloxy)benzofuran-2-carboxamide] | 0.5 to 1 µM |
| O=C(NC1CCN(Cc2ccncc2)CC1)c1ccc(OC2CCN(c3ccc(C(F)(F)F)cc3)CC2)nc1 [1-10, N-(1-(pyridin-4-ylmethyl)piperidin-4-yl)-6-(1-(4-(trifluoromethyl)phenyl)piperidin-4-yloxy)nicotinamide] | < 0.1 µM |
| N#Cc1cccc(CN2CCC(NC(=O)c3cc4ccc(OC5CCN(c6ccc(C(F)(F)F)cc6)CC5)cc4s3)CC2)c1 [1-145, N-(1-(3-cyanobenzyl)piperidin-4-yl)-6-(1-(4-(trifluoromethyl)phenyl)piperidin-4-yloxy)benzo[b]thiophene-2-carboxamide] | 0.1 to 0.5 µM |
| COC(=O)c1ccc(CN2CCC(NC(=O)c3ccc(OC4CCN(c5ccc(C(F)(F)F)cc5)CC4)nc3)CC2)cc1 [1-45, methyl 4-((4-(6-(1-(4-(trifluoromethyl)phenyl)piperidin-4-yloxy)nicotinamido)piperidin-1-yl)methyl)benzoate] | > 10 µM |
| CC(C)(C)OC(=O)N1CCC(NS(=O)(=O)c2ccc(OC3CCN(c4ccc(C(F)(F)F)cc4)CC3)nc2)CC1 [1-54, tert-butyl 4-(6-(1-(4-(trifluoromethyl)phenyl)piperidin-4-yloxy)pyridine-3-sulfonamido)piperidine-1-carboxylate] | 1 to 5 µM |
| N#Cc1ccccc1CN1CCC(NC(=O)c2cc3ccc(OC4CCN(c5ccc(C(F)(F)F)cc5)CC4)cc3o2)CC1 [1-98, N-(1-(2-cyanobenzyl)piperidin-4-yl)-6-(1-(4-(trifluoromethyl)phenyl)piperidin-4-yloxy)benzofuran-2-carboxamide] | < 0.1 µM |
| O=C(N[C@H]1CCNC1)c1cc2cc(OC3CCN(Cc4ccc(Cl)cc4)CC3)ccc2o1 [1-128, (S)-5-(1-(4-chlorobenzyl)piperidin-4-yloxy)-N-(pyrrolidin-3-yl)benzofuran-2-carboxamide] | > 10 µM |
| COC(=O)c1ccc(CN2CCC(NC(=O)c3ccc(OC4CCN(c5ccc(C(F)(F)F)cc5)CC4)cn3)CC2)cc1 [1-8, methyl 4-((4-(5-(1-(4-(trifluoromethyl)phenyl)piperidin-4-yloxy)picolinamido)piperidin-1-yl)methyl)benzoate] | < 0.1 µM |
| O=C(NC1CCN(Cc2ccncc2)CC1)c1cc2ccc(OC3CCN(c4ccc(C(F)(F)F)cc4)CC3)cc2o1 [1-87, N-(1-(pyridin-4-ylmethyl)piperidin-4-yl)-6-(1-(4-(trifluoromethyl)phenyl)piperidin-4-yloxy)benzofuran-2-carboxamide] | < 0.1 µM |
| N#Cc1ccc(N2CCC(Oc3ccc(C(=O)NC4CCN(Cc5cccnc5)CC4)nc3)CC2)cc1 [1-6, N-(1-(pyridin-3-ylmethyl)piperidin-4-yl)-5-(1-(4-cyanophenyl)piperidin-4-yloxy)picolinamide] | 0.1 to 0.5 µM |

same assay, conditions: compounds of Table 2 (Table 7)

| Compound | EC50 |
| --- | --- |
| NC(=O)c1ccc(CN2CCc3[nH]c4ccc(C(=O)NC5CCN(Cc6ccc(C(F)(F)F)cc6)CC5)cc4c3C2)cc1 [2-47, 2-(4-carbamoylbenzyl)-N-(1-(4-(trifluoromethyl)benzyl)piperidin-4-yl)-2,3,4,5-tetrahydro-1H-pyrido[4,3-b]indole-8-carboxamide] | 10 to 50 µM |
| N#Cc1ccc(CN2CCC(NC(=O)c3ccc4[nH]c5c(c4c3)CN(Cc3ccccc3)CC5)CC2)cc1 [2-4, 2-benzyl-N-(1-(4-cyanobenzyl)piperidin-4-yl)-2,3,4,5-tetrahydro-1H-pyrido[4,3-b]indole-8-carboxamide] | 1 to 5 µM |
| O=C(NC1CCN(Cc2cocn2)CC1)c1ccc2[nH]c3c(c2c1)CN(Cc1ccc(C(F)(F)F)cc1)CC3 [2-54, N-(1-(oxazol-4-ylmethyl)piperidin-4-yl)-2-(4-(trifluoromethyl)benzyl)-2,3,4,5-tetrahydro-1H-pyrido [4,3-b]indole-8-carboxamide] | < 0.5 µM |
| O=C(NC1CCN(Cc2cccnc2)CC1)c1ccc2[nH]c3c(c2c1)CN(c1ccc(F)cc1)CC3 [2-36, 2-(4-fluorophenyl)-N-(1-(pyridin-3-ylmethyl)piperidin-4-yl)-2,3,4,5-tetrahydro-1H-pyrido [4,3-b]indole-8-carboxamide] | > 100 µM |
| O=C(NC1CCN(Cc2ccccc2)CC1)c1ccc2[nH]c3c(c2c1)CN(C(=O)OCc1ccccc1)CC3 [2-2, benzyl 8-(1-(4-benzyl)piperidin-4-ylcarbamoyl)-3,4-dihydro-1H-pyrido[4,3-b]indole-2(5H)-carboxylate] | 10 to 50 µM |

same assay, conditions: compounds of Table 3 (Table 8)

| Compound | EC50 |
| --- | --- |
| N#Cc1ccc(CN2CCC(NC(=O)c3ccc(C(=O)N4CCN(c5ccc(C(F)(F)F)cn5)CC4)cc3)CC2)cc1 [3-30, N-(1-(4-cyanobenzyl)piperidin-4-yl)-4-(4-(5-(trifluoromethyl)pyridin-2-yl)piperazine-1-carbonyl)benzamide] | < 0.1 µM |
| N#Cc1ccc(CN2CCc3ccc(C(=O)NC4CCN(Cc5ccc(C(F)(F)F)cc5)CC4)cc3C2)cc1 [3-39, 2-(4-cyanobenzyl)-N-(1-(4-(trifluoromethyl)benzyl)piperidin-4-yl)-1,2,3,4-tetrahydroisoquinoline-7-carboxamide] | 1 to 10 µM |
| N#Cc1ccc(CN2CCC(NC(=O)c3ccc(C(=O)NC4CCN(Cc5ccc(C(F)(F)F)cc5)CC4)cc3)CC2)cc1 [3-31, N^1-(1-(4-cyanobenzyl)piperidin-4-yl)-N^4-(1-(4-(trifluoromethyl)benzyl)piperidin-4-yl)terephthalamide] | < 0.1 µM |
| CC(C)(C)OC(=O)N1CCC(NC(=O)c2cnc(OC3CCN(c4ccc(C(F)(F)F)cc4)CC3)cn2)CC1 [3-19, tert-butyl 4-(5-(1-(4-(trifluoromethyl)phenyl)piperidin-4-yloxy)pyrazine-2-carboxamido)piperidine-1-carboxylate] | 1 to 10 µM |
| CC(C)(C)OC(=O)N1CCC(Oc2ncc(C(=O)NC3CCN(Cc4ccc(C#N)cc4)CC3)s2)CC1 [3-26, tert-butyl 4-(5-(1-(4-cyanobenzyl)piperidin-4-ylcarbamoyl)thiazol-2-yloxy)piperidine-1-carboxylate] | 1 to 10 µM |

same assay, conditions: compounds of Table 4 (Table 9)

| Compound | EC50 |
| --- | --- |
| O=C(N[C@H]1CCN(Cc2ccc(C(F)(F)F)cc2)C1)c1ccc(C(=O)N2CCN(c3ccc(Cl)cc3)CC2)cn1 [4-8, 5-(4-(4-chlorophenyl)piperazine-1-carbonyl)-N-(1-(4-(trifluoromethyl)benzyl)pyrrolidin-3-yl)picolinamide] | 1 to 5 µM |
| N#Cc1ccc(CN2CCC(NC(=O)c3ccc(C(=O)N4CCN(Cc5ccc(F)cc5)CC4)cn3)CC2)cc1 [4-2, N-(1-(4-cyanobenzyl)piperidin-4-yl)-5-(4-(4-fluorobenzyl)piperazine-1-carbonyl)picolinamide] | < 0.5 µM |

same assay, conditions: compounds of Table 5 (Table 10)

| Compound | EC50 |
| --- | --- |
| O=C(NC1CCN(Cc2ccccc2)CC1)c1ccc(OC2CCN(Cc3ccncc3)CC2)c(Cl)c1 [5-6, N-(1-benzylpiperidin-4-yl)-3-chloro-4-(1-(pyridin-4-ylmethyl)piperidin-4-yloxy)benzamide] | < 1 µM |
| N#Cc1ccc(CN2CCC(Oc3ccc(C(=O)NC4CCNCC4)cc3)CC2)cc1 [5-79, 4-(1-(4-cyanobenzyl)piperidin-4-yloxy)-N-(piperidin-4-yl)benzamide] | > 100 µM |
| O=C(NC1CCN(Cc2ccc(Cl)cc2)CC1)c1ccc(OC2CCN(Cc3ccc(Cl)c(Cl)c3)CC2)c(F)c1 [5-80, N-(1-(4-chlorobenzyl)piperidin-4-yl)-4-(1-(3,4-dichlorobenzyl)piperidin-4-yloxy)-3-fluorobenzamide] | < 1 µM |
| CC(C)(C)OC(=O)N1CCC(NC(=O)c2ccc(OC3CCN(c4ccc(C(F)(F)F)cc4)CC3)c(F)c2)CC1 [5-26, tert-butyl 4-(3-fluoro-4-(1-(4-(trifluoromethyl)phenyl)piperidin-4-yloxy)benzamido)piperidine-1-carboxylate] | < 1 µM |
| O=C(NC1CCN(Cc2ccccc2)CC1)c1ccc(OC2CCN(Cc3ccc(C(F)(F)F)cc3)CC2)c(F)c1 [5-55, N-(1-benzylpiperidin-4-yl)-3-fluoro-4-(1-(4-(trifluoromethyl)benzyl)piperidin-4-yloxy)benzamide] | < 1 µM |
| O=C(c1ccc(OC2CCN(Cc3ccccc3)CC2)cc1)N1CCN(Cc2ccccn2)CC1 [5-105, (4-(1-benzylpiperidin-4-yloxy)phenyl)(4-(pyridin-2-ylmethyl)piperazin-1-yl)methanone] | 10 to 20 µM |
| N#Cc1ccc(CN2CCC(Oc3ccc(C(=O)NC4CCN(Cc5ccccc5)CC4)c(Cl)c3)CC2)cc1 [5-51, N-(1-benzylpiperidin-4-yl)-2-chloro-4-(1-(4-cyanobenzyl)piperidin-4-yloxy)benzamide] | < 1 µM |
| N#Cc1ccc(N2CCC(Oc3cccc(C(=O)NC4CCN(Cc5ccncc5)CC4)c3)CC2)cc1 [5-88, N-(1-(pyridin-4-ylmethyl)piperidin-4-yl)-3-(1-(4-cyanophenyl)piperidin-4-yloxy)benzamide] | 1 to 10 µM |
| CC(C)(C)OC(=O)N1CCN(C(=O)c2ccc(OC3CCN(Cc4ccccc4)CC3)cc2)CC1 [5-99, tert-butyl 4-(4-(1-benzylpiperidin-4-yloxy)benzoyl)piperazine-1-carboxylate] | 1 to 10 µM |
